Assay results published in patent US11801228B2, “Modified guanidine-containing polymers for biologic delivery” (THE FLORIDA INTERNATIONAL UNIVERSITY BOARD OF TRUSTEES, priority 2022, dated 2023).

B1: RNase A: 13.7 kDa enzyme capable of degrading RNA chains (protein, UniProt P61823 27-150, looked up)
Ribonuclease pancreatic: KETAAAKFERQHMDSSTSAASSSNYCNQMMKSRNLTKDRCKPVNTFVHESLADVQAVCSQKNVACKNGQTNCYQSYSTMSITDCRETGSSKYPNCAYKTTQANKHIIVACEGNPYVPVHFDASV

System: HeLa cells
Assay: Functional protein delivery (MTT with PN/enzyme complexes)
Format: cell-based
Settings: no carrier
Method: Final concentrations of 40, 20, 10, and 5 μM were added into the complete media by dilution of the polymer stock solutions. After addition of the samples, cells were incubated for 18 h prior to treatment with 10 μL of methylthiazole tetrazolium (MTT) (5 mg/mL in PBS) and incubated for 4 h at 37° C. After incubation, 200 μL of medium was gently removed and 100 μL of biological grade DMSO was added to solubilize the purple formazan crystals. Absorbance was measured by microwell plate reader. Cell viability was determined as a function of absorbance of each sample relative to control wells. All measurements represent the average of three independent measurements+/−standard deviation.
MTT assay was performed with PN/enzyme complexes are described previously. In short, serial dilutions of saporin or RNase were prepared and complexes with various PNs. For serum-containing media, complexes were added to HeLa cells and incubated overnight prior to MTT treatment. For serum-free experiments, complexes were added in DMEM for 4 h and the media was replaced with complete media overnight prior to MTT treatment.

Molecule | toxicity of free enzyme on HeLa cells
Saporin | no toxicity
B1 | no toxicity
